Experimental data taken from PubChem BioAssay AID2060612 (Molecular Pharmacology Branch, DTP, NCI, 2025).
Values joined by “and” are separate entries in the source; they are usually repeats but may differ in a detail not shown here. Equal values may be shown once.

Tested on: 565232-114-T-J1-PDC complex spheroid viability
Assay: Anticancer human tumor 565232-114-T-J1-PDC patient-derived bladder carcinoma cell line growth inhibition [CLK]
Conditions: for viability, T/C: stronger effect = lower value
Excerpt: A high-throughput screen of multi-cell type tumor spheroids was designed to identify active combinations of […] and targeted small molecules. Complex spheroids include a stromal component modeled by human endothelial cells (HUVEC) and fibroblasts modeled by human mesenchymal stem cells (MSCs). The concentration ranges selected for each drug and investigational agent were based upon clinically achievable concentrations if the clinical Cmax of the agent was known.
Compounds. The drugs and investigational agents: cirtuvivint (SM08502; NSC835563), CC-671 (NSC850746), vemurafenib (NSC761431), tapotoclax (NSC804041), sotorasib (NSC818433), adagrasib (NSC831453), MRTX-1133 (NSC836407), BAY2416964 (NSC825713), copanlisib (NSC816437), inavolisib (NSC800729), abemaciclib (NSC768073), osimertinib (NSC779217), entinostat (NSC756642), eltanexor (KPT-8602, NSC794443), venetoclax (NSC766270), ceralasertib (NSC777638), bortezomib (NSC756655), olaparib (NSC753686), talazoparib (NSC767125), alisertib (NSC759677), peposertib (NSC802822), gemcitabine (NSC613327), 5-fluorouracil (NSC19893), SN-38 (NSC673596), oxaliplatin (NSC266046), paclitaxel (NSC125973), and doxorubicin (NSC123127), were obtained from the National Cancer Institute (NCI) Developmental Therapeutics Program Chemical Repository. The FDA-approved anticancer drug set is available from the Developmental Therapeutics Program at https://dtp.cancer.gov/organization/dscb/obtaining/available plates.htm. […] The stock solutions were prepared in dimethyl sulfoxide (DMSO, Sigma-Aldrich, St. Louis, MO, cat. D2650), except for the platinum complexes which were prepared in saline (Quality Biological, Gaithersburg, MD, cat. 114-055-101), at 800-fold the tested concentration and stored at -70 degrees C prior to their use. All drugs and investigational agents were tested over a range starting from a high concentration at or near the clinical Cmax and decreasing in half-log increments. If the clinical Cmax for an agent had not been determined, the highest concentration tested was 10 microM.
Cell Culture. All cells were maintained in an incubator at 37 degrees C and 5% CO2 with 95% humidity. The PDC lines were cultured according to standard operating procedures established by the NCI PDMR. Briefly, all PDCs were thawed and cultured in Matrigel-coated flasks prepared with a working solution of 1X Ham's F-12 nutrient mix, without supplementation (Invitrogen, Waltham, MA, cat. 11765054), 100 U/mL penicillin-streptomycin (Invitrogen, cat. 15140122), and 2.5% Matrigel (Corning Inc., Corning, NY, cat. 354248) for the first three passages. The 947758-054-R-J2-PDC line was cultured in 6B/Colon 1A media, which includes advanced DMEM/F-12 (Thermo Fisher Scientific, cat. 12634028), 10 mM HEPES (Thermo Fisher Scientific, cat. 15630080), 1X GlutaMAX supplement (Thermo Fisher Scientific, cat. 35050061), 0.1 mg/mL primocin (InvivoGen, cat. ant-pm-2), 10% defined fetal bovine serum, heat inactivated (HyClone Laboratories Inc., cat. SH30070.03HI), 1.25 mM N-Acetyl-L-cysteine (Sigma-Aldrich, cat. A9165), 10 mM nicotinamide (Sigma-Aldrich, cat. N0636), 1X B-27 supplement (Thermo Fisher Scientific, cat. 17504044), 1X N-2 supplement (Thermo Fisher Scientific, cat. 17502048), and 10 microM Y-27632 dihydrochloride (Tocris Bioscience, cat. 1254). The 876862-298-R-J1-PDC was cultured in 6E media, which includes all 6B/Colon 1A media components plus 50% L-WRN conditioned media (ATCC, cat. CRL-3276), 50 ng/mL recombinant human EGF recombinant protein (hEGF; Thermo Fisher Scientific, cat. PHG0311), 10 ng/mL recombinant human fibroblast growth factor 10 (hGFG-10; PeproTech, cat. 100-26), 1 ng/mL recombinant human fibroblast growth factor 2 (hFGF-2; PeproTech, cat. 100-18B), and 1 µM prostaglandin E2 (PGE2; Tocris, cat. 2296). The 227483-062-R1-J1-PDC line was cultured in Panc media, containing all 6E components except hFGF-2, with the addition of 500 nM SB-431542 (Selleckchem, cat. S1067) and 10 nM gastrin (Tocris, cat. 3006). […]
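Also: spheroids exposed to compounds for 7 days before readout.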
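For viability, T/C in this document: 100% = DMSO vehicle wells with luminescence normalized to vehicle control.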

| Structure (SMILES) | viability, T/C (compound 0.00316 µM) | viability, T/C (compound 0.01 µM) | viability, T/C (compound 0.0316 µM) | viability, T/C (compound 0.1 µM) | viability, T/C (compound 0.316 µM) | viability, T/C (compound 1 µM) | IC50 (curve of compound) | viability, T/C (compound 3.16 µM) | viability, T/C (compound 10 µM) | IC50 (compound alone, run of 07/31/2023) | viability, T/C (compound 0.000316 µM) | viability, T/C (compound 0.001 µM) | viability, T/C (compound 0.00949 µM) | viability, T/C (compound 0.03 µM) | viability, T/C (compound 0.0949 µM) | viability, T/C (compound 0.3 µM) | viability, T/C (compound 0.949 µM) | viability, T/C (compound 3 µM) |
| --- | --- | --- | --- | --- | --- | --- | --- | --- | --- | --- | --- | --- | --- | --- | --- | --- | --- | --- |
| CCN1CCN(Cc2ccc(Nc3ncc(F)c(-c4cc(F)c5nc(C)n(C(C)C)c5c4)n3)nc2)CC1 | 90.3% and 109% | 84.6% and 93.8% | 99.3% and 92.6% | 85.6% and 91.6% | 103% and 81.7% | 120% and 115% | > 1000 nM |  |  |  |  |  |  |  |  |  |  |  |
| CCc1c2c(nc3ccc(O)cc13)-c1cc3c(c(=O)n1C2)COC(=O)[C@]3(O)CC | 91.1% and 106% | 76.9% and 89.2% | 66.4% and 18% |  | 18.8% and 5.03% | 5.24% and 1.76% | 65.5 nM and 18.9 nM |  |  |  |  |  |  |  |  |  |  |  |
| CN1CCN(c2cc(C(=O)Nc3cc4cc(-c5cnn(C)c5)ccc4cn3)ccn2)CC1 |  |  | 97.6% [middle of 9 runs] | 106% [middle of 9 runs] | 19.9% [middle of 9 runs] | 1.63% [middle of 9 runs] |  | 0.86% [middle of 9 runs] | 0.47% [middle of 9 runs] | 212 nM [middle of 8 runs] |  |  |  |  |  |  |  |  |
| COC1C=CCC(C)C(C)S(=O)(=O)NC(=O)c2ccc3c(c2)N(CC2CCC21)CC1(CCCc2cc(Cl)ccc21)CO3 (stereo unspecified) |  |  | 93.3% | 92.9% | 79.9% | 21% | 568 nM | 6.86% | 3.28% |  |  |  |  |  |  |  |  |  |
| COc1c(OCCCN2CCOCC2)ccc2c3n(c(=NC(=O)c4cnc(N)nc4)nc12)CCN3 | 97.1% | 78.6% | 101% | 103% | 120% | 66.1% | > 1000 nM |  |  |  |  |  |  |  |  |  |  |  |
| Cn1ncnc1[C@H]1c2n[nH]c(=O)c3cc(F)cc(c23)N[C@@H]1c1ccc(F)cc1 | 77.5% and 109% | 109% and 97.4% | 104% and 99.3% | 105% and 37% |  |  | > 100 nM and 78.6 nM |  |  |  | 93.9% and 110% | 72.5% and 92.8% |  |  |  |  |  |  |
| NC(=O)C(=Cn1cnc(-c2cc(C(F)(F)F)cc(C(F)(F)F)c2)n1)c1cncnc1 |  |  |  |  |  |  | 436 nM and 319 nM |  |  |  |  |  | 99% and 110% | 99.6% and 106% | 111% and 105% | 71.5% and 52.6% | 6.85% and 2.59% | 1.92% and 0.42% |
| Nc1ccccc1NC(=O)c1ccc(CNC(=O)OCc2cccnc2)cc1 |  |  | 103% and 80.6% | 94.5% and 89.7% | 110% and 94.7% | 106% and 113% | 5900 nM and 4160 nM | 117% and 65.5% | 2.78% and 0.64% |  |  |  |  |  |  |  |  |  |
| Nc1ccn(C2OC(CO)C(O)C2(F)F)c(=O)n1 (stereo unspecified) |  |  | 95.5% and 50.3% | 57% and 17.7% | 36.3% and 10.3% | 35.6% and 9.39% | 151 nM and 31.8 nM | 37.5% and 13% | 39.9% and 13.2% |  |  |  |  |  |  |  |  |  |
| O=C(c1cc(Cc2n[nH]c(=O)c3ccccc23)ccc1F)N1CCN(C(=O)C2CC2)CC1 |  |  | 128% and 92% | 96.3% and 94.3% | 113% and 94.3% | 90.7% and 83.8% | > 10000 nM | 95% and 117% | 122% and 58.1% |  |  |  |  |  |  |  |  |  |
| O=c1[nH]cc(F)c(=O)[nH]1 |  |  | 91.2% and 106% | 80.1% and 80.5% | 80.7% and 124% | 88.1% and 93.1% | > 10000 nM | 134% and 80.6% | 131% and 71.9% |  |  |  |  |  |  |  |  |  |
